Experimental data from ChEMBL document CHEMBL1201862, “PubChem BioAssay data set” (2004).
Activity calls are given as the source filed them.

Assays:
[1] = CRF-BP/CRF-R2 complex antagonists, dose response, cell-based, uHTS hits, 384-well (AID 651639); type: functional, Homo sapiens; conditions: read-out: IC50_Mean
[2] = biological target: T1, Corticotropin-releasing factor receptor 2/Corticotropin-releasing factor-binding protein (Homo sapiens, UniProt P24387+Q13324); assay: activators of CRF receptor 2 with binding protein – uHTS hits, confirmation (AID 602473); type: functional; conditions: read-out: EC50_Mean
T1 sequence (Q13324 whole entry): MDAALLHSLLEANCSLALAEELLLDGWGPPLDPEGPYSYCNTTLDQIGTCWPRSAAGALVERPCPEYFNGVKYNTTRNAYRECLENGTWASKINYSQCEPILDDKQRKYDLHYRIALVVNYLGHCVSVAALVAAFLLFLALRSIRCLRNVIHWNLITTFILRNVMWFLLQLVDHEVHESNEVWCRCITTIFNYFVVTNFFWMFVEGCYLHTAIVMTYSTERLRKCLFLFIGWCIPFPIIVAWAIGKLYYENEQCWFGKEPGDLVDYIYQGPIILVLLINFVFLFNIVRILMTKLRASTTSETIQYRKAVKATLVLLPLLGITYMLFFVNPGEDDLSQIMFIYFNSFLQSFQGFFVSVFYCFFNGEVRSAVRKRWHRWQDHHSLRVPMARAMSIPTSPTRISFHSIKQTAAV
T1 sequence (P24387 whole entry): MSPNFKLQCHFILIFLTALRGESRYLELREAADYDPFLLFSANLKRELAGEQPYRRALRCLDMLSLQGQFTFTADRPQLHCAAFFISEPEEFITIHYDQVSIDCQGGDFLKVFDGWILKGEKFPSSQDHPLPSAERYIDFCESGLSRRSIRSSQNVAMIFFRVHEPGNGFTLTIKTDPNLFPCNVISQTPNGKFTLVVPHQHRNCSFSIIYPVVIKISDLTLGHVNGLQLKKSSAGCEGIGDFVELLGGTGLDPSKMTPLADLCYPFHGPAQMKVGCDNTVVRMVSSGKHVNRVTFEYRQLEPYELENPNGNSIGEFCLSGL

[3] = biological target: T1, Corticotropin-releasing factor receptor 2/Corticotropin-releasing factor-binding protein; assay: Dose Response confirmation of uHTS hits for small molecule antagonists of the CRF-binding protein and CRF-R2 receptor complex.; type: functional; conditions: read-out: IC50_Mean
[4] = Shn3 3'UTR reporter inhibitors, dose response, cell-based, Clone20 osteoblasts, firefly luciferase, cherry-picked (AID 624132); type: functional;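 also: firefly luciferase luminescence from reporter carrying the Shn3 3'UTR in osteoblasts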
[5] = control 3'UTR Renilla luciferase suppression, dose response, counter-screen for Shn3 inhibitor project, cell-based, Clone20-Shn3RL, cherry-picked (AID 624133); type: functional
[6] = biological target: Protein Wnt-3a (Mus musculus, UniProt P27467); assay: Wnt3a-driven reporter signaling inhibition, dose response, selectivity assay for Gli-SUFU antagonist project, Wnt-LIGHT cells, luminescence (AID 651570); type: functional; conditions: read-out: IC50_Mean;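 also: Wnt-LIGHT reporter cells stimulated with conditioned medium from Wnt3a-producing cells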
[7] = biological target: T2, Orexin/Hypocretin receptor type 1 (Homo sapiens, UniProt O43613); assay: (§1) Fluorescence-based cell-based high throughput dose response assay for antagonists of the orexin 1 receptor (OX1R; HCRTR1). [Related pubchem assays (depositor defined):AID434989, AID435008, AID463079, AID485270, AID492963, AID492964, AID492965, AID493232, AID504717, AID504718]; type: functional
T2 sequence (O43613 whole entry): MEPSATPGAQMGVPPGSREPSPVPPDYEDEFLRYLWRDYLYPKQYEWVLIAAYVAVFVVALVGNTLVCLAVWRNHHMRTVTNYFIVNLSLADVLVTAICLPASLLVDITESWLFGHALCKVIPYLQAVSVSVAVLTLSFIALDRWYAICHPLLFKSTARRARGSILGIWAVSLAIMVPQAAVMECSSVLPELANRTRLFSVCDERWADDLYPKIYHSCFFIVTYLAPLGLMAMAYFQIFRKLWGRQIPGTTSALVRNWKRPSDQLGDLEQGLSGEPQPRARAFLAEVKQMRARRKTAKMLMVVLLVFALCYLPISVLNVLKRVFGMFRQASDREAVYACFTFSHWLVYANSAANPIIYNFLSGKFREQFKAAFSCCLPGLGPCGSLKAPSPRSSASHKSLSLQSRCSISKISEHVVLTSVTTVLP

[8] = system: CHO-K1; assay: (§2) Counterscreen for antagonists of the orexin 1 receptor (OX1R; HCRTR1): Homogeneous time resolved fluorescence (HTRF)-based cell-based dose response assay to identify antagonists of the parental CHO-K1 cell line. [Related pubchem assays (depositor defined):AID434989, AID435008, AID463079, AID485270, AID492963, AID492964, AID492965, AID493232, AID504699, AID504701]; type: functional; conditions: Cricetulus griseus
[9] = biological target: T3, Orexin receptor type 2 (Homo sapiens, UniProt O43614); assay: Counterscreen assay for antagonists of the orexin 1 receptor (OX1R; HCRTR1): Homogeneous Time Resolved Fluorescence (HTRF)-based cell-based dose response assay for antagonists of the orexin 2 receptor (OX2R; HCRTR2), run by assay provider.; type: functional
T3 sequence (O43614 whole entry): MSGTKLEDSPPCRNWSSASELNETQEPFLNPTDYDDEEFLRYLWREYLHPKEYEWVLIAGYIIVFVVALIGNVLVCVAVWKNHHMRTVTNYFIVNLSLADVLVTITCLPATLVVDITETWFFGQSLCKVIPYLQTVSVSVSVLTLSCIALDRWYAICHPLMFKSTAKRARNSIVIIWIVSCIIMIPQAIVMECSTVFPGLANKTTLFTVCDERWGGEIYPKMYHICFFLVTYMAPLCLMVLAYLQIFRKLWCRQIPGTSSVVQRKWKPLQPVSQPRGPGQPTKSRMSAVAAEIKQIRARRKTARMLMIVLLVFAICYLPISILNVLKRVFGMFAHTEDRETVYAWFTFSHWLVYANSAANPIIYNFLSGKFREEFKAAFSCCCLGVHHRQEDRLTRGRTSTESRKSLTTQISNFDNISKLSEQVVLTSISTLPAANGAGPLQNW

[10] = biological target: T3, Orexin receptor type 2; assay: Counterscreen assay for antagonists of the orexin 1 receptor (OX1R; HCRTR1): Fluorescence-based cell-based dose response assay for antagonists of the orexin 2 receptor (OX2R; HCRTR2), run by assay provider.; type: functional
[11] = biological target: T2, Orexin/Hypocretin receptor type 1; assay: as §1, with “Homogeneous Time Resolved Fluorescence (HTRF)-based” for “Fluorescence-based”; type: functional
[12] = as §2, with “Fluorescence-based” for “Homogeneous time resolved fluorescence (HTRF)-based”, “cell-based high throughput” for “cell-based”, “CHO” for “CHO-K1”; type: functional
[13] = Luminescence-based cell-based high throughput dose response assay to identify activators of the DAF-12 from the parasite S. stercoralis (ssDAF-12).; type: functional
[14] = biological target: T4, Oxysterols receptor LXR-beta (Homo sapiens, UniProt P55055); assay: LXR agonists, Gal4 luciferase reporter, dose response, counter-screen for ssDAF-12 agonist project, cell-based, luminescence, HEK293, S. stercoralis campaign (AID 720737); type: functional; conditions: read-out: IC50 (the source's name)
T4 sequence (P55055 whole entry): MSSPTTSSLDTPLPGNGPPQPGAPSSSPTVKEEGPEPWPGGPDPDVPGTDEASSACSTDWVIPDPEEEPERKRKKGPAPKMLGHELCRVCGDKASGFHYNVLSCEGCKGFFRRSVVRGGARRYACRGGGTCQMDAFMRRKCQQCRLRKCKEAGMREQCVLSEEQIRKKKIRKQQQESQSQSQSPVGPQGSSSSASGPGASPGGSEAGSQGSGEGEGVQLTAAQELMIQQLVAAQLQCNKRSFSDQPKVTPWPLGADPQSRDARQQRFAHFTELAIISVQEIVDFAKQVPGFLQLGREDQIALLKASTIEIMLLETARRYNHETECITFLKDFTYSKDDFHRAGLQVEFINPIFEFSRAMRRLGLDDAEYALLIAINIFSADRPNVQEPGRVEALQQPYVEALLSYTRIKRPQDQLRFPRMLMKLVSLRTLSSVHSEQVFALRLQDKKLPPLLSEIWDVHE

[15] = Vero cell cytotoxicity, cytotoxicity control for M. tuberculosis inhibitor project, purified and synthesized samples, set 3 (AID 504684); type: functional
[16] = biological target: T5, Replicative DNA helicase DnaB (Mycobacterium tuberculosis, UniProt P9WMR3); assay: DnaB intein splicing inhibitors, dose response, biochemical, cell-free fluorescence (AID 449749); type: functional
T5 sequence (P9WMR3 whole entry): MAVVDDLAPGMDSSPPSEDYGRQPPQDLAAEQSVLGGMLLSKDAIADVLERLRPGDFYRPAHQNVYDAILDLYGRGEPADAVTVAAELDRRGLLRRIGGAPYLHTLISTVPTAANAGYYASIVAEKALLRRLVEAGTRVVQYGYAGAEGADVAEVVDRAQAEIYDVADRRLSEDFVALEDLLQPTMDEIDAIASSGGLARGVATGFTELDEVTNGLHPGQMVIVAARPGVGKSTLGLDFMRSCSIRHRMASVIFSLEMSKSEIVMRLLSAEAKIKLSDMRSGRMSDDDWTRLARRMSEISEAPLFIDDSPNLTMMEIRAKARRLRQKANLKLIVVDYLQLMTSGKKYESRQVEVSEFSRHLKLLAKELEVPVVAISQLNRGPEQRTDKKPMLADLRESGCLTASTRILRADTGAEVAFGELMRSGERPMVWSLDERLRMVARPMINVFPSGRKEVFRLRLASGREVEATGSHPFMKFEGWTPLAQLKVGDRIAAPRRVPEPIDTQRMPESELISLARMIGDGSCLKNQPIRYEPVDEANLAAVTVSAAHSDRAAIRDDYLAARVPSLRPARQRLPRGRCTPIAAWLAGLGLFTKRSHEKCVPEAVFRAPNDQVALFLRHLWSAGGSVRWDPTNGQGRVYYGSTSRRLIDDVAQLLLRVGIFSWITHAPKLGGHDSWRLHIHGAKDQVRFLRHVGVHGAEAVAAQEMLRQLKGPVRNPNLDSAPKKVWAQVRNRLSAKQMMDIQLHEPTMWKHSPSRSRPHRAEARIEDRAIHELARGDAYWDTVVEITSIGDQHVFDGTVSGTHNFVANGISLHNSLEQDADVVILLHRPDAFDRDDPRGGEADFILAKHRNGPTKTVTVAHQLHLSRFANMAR

[17] = biological target: T6, Protein RecA (Mycobacterium tuberculosis, UniProt P9WHJ3); assay: Fluorescence Cell-Free Homogeneous Dose Retest to Identify Inhibitors of RecA-Intein Splicing Activity. [Related pubchem assays (depositor defined):AID2097, AID2223, AID489010, AID492950]; type: functional
T6 sequence (P9WHJ3 whole entry): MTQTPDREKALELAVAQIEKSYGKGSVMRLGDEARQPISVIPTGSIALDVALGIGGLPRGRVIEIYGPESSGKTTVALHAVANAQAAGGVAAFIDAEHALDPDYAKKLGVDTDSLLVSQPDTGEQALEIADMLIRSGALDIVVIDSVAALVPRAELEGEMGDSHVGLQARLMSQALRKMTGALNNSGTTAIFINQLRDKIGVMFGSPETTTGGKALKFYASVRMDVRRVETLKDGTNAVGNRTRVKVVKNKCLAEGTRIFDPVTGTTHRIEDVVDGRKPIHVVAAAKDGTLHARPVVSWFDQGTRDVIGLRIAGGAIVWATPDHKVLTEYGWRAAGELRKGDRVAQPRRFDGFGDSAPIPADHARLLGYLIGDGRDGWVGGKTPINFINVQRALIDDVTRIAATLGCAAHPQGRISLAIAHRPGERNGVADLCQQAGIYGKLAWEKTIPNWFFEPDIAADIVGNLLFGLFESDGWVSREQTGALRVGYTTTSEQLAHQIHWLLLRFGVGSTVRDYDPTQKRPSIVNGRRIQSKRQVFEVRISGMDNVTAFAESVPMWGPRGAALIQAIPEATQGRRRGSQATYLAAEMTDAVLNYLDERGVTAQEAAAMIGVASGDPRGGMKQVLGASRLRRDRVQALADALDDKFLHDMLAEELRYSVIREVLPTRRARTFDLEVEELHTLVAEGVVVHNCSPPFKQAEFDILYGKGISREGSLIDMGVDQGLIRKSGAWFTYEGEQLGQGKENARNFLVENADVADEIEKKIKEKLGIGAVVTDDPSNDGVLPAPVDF

[18] = A Cell Based Secondary Assay to Explore Cytotoxicity in THP-1 Cells of Compounds that Modulate Mycobacterium tuberculosis in Media Containing Glycerol versus Media without Glycerol (2).; type: functional
[19] = biological target: T7, Probable nicotinate-nucleotide adenylyltransferase (Staphylococcus aureus (strain N315), UniProt P65502); type: functional, Staphylococcus aureus subsp. aureus N315; conditions: read-out: IC50_Mean;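 as to IC50 Mean: confirmatory dose-response retesting of NadD inhibitor hits first found in an ultra-high-throughput screen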
[20] = biological target: T7, Probable nicotinate-nucleotide adenylyltransferase; type: functional, Staphylococcus aureus subsp. aureus N315

T7 sequence (P65502 whole entry): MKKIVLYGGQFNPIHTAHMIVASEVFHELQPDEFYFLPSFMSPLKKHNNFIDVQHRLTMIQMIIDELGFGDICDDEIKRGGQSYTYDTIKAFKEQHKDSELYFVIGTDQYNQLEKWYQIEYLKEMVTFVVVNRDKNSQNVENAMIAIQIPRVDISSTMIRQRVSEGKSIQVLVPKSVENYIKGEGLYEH
Sequence of Protein Wnt-3a (P27467 whole entry): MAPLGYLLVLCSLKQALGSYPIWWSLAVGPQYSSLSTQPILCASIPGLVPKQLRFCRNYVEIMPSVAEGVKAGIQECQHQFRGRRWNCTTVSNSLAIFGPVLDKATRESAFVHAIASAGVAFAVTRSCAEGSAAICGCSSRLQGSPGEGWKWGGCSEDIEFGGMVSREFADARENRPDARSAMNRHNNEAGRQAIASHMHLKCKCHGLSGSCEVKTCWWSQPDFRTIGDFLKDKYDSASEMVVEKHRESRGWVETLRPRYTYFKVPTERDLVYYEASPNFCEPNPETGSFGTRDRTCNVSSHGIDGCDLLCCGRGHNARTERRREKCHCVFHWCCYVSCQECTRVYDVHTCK

## COC(=O)CSC1=C(C#N)C(c2ccc(Cl)cc2)C(C(=O)OC)C(=O)N1 (centres undefined)
[1]
  IC50: 13.4 µM (active)
[2]
  EC50: > 53 µM (inactive)
[3]
  IC50: 24 µM (active)

## C=CCOc1nc2c(c(=O)n(C)c(=O)n2C)n1Cc1ccc(Cl)cc1
[4]
  AC50: 1.03 µM (active)
[5]
  AC50: 2.02 µM (active)
[6]
  IC50: 1.88 µM (active)

## COc1ccc(-c2nn3c(-c4ccccc4)nnc3s2)cc1
[7]
  IC50: > 5.53 µM (active)
[8]
  IC50: > 66.2 µM (inactive)
[9]
  IC50: > 50 µM (inactive)
[10]
  IC50: > 88.8 µM (inactive)
[11]
  IC50: 2.44 µM (active)
[12]
  IC50: > 49.8 µM (inactive)

## O=C(NC(=S)Nc1c(Cl)ccc2nsnc12)c1ccccc1F
[1]
  IC50: > 20 µM (inactive)
[2]
  EC50: > 53 µM (inactive)
[3]
  IC50: 2.88 µM (active)

## Cc1ccc(NC(=O)c2ccc3ccccc3n2)nc1
[13]
  IC50: > 67.5 µM (inactive)
[14]
  EC50: > 67.5 µM (inactive)
[7]
  IC50: 10.4 µM (inactive)
[8]
  IC50: > 66.2 µM (inactive)
[9]
  IC50: 2.35 µM (active)
[10]
  IC50: > 88.8 µM (inactive)
[11]
  IC50: 1.64 µM (active)
[12]
  IC50: > 49.7 µM (inactive)

## O=C1C(Br)=Cc2cccc3cccc1c23
[15]
  CC50: 74.6 µM (active)
[16]
  AC50: > 380 µM (inactive)
[17]
  EC50: 0.581 µM (active)
[18]
  CC50: > 100 µM (active)

## NC(CSC1(c2ccc(Cl)cc2)c2ccccc2-c2ccccc21)C(=O)O (centres undefined)
[19]
  IC50: 34.2 µM (active)
[20]
  IC50: 11.7 µM (active)
